{"source": "ChEMBL document CHEMBL5465560", "about": "“Selectivity Literature for EUbOPEN Chemogenomic Library” (2024)", "key": {"[1]": {"molecular_target": "T1, Inhibitor of nuclear factor kappa-B kinase subunit alpha (Homo sapiens) (UniProt O15111)", "T1 sequence (whole entry)": "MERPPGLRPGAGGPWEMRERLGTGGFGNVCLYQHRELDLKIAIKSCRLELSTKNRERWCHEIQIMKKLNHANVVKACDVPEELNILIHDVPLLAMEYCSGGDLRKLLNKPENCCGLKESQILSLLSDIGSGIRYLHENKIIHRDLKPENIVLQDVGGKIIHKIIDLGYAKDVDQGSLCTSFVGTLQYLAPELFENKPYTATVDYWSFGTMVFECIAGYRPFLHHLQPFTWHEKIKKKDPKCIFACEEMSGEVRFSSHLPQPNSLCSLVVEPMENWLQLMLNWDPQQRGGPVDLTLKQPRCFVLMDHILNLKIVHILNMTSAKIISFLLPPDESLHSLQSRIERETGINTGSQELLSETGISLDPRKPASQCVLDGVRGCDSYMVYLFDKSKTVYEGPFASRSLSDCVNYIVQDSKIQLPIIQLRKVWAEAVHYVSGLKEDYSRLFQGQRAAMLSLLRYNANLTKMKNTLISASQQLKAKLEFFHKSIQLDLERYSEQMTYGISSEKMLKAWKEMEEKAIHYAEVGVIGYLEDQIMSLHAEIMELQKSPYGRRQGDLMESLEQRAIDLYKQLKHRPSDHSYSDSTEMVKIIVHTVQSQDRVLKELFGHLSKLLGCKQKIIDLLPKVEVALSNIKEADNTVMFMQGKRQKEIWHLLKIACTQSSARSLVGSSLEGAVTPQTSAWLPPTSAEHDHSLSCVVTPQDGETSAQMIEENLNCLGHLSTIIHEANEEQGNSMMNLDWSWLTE", "test": "Selectivity interaction (KinomeScan (DiscoverX)) EUB0000229b CHUK", "details": "at 10 µM"}, "[2]": {"molecular_target": "T2, Inhibitor of nuclear factor kappa-B kinase subunit beta (Homo sapiens) (UniProt O14920)", "T2 sequence (whole entry)": "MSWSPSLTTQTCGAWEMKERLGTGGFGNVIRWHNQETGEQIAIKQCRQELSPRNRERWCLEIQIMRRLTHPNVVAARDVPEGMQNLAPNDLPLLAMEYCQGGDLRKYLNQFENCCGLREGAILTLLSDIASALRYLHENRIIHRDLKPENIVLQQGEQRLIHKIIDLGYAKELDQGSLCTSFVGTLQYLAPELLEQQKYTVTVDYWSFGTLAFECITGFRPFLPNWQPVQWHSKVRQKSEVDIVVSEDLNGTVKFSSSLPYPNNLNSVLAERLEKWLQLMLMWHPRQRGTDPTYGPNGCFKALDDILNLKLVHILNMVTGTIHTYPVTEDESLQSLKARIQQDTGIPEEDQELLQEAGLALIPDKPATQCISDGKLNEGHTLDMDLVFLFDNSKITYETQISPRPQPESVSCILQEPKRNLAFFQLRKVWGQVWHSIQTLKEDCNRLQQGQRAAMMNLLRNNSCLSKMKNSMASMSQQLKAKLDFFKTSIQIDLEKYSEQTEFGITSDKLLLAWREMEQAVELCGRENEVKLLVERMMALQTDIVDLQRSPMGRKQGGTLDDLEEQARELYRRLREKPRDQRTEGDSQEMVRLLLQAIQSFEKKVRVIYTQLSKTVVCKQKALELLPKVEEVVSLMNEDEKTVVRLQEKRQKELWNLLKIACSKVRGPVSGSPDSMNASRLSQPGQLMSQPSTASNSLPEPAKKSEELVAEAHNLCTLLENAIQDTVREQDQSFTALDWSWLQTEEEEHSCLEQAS", "test": "Selectivity interaction (ActivX KiNativ screen (kinase selectivity in THP-1 cell lysates)) EUB0000639a IKBKB", "assay_type": "subcellular", "details": "lysate, at 0.01 µM"}, "[3]": {"molecular_target": "Serine/threonine-protein kinase MARK2 (Homo sapiens) (UniProt Q7KZI7)", "sequence (Q7KZI7 whole entry)": "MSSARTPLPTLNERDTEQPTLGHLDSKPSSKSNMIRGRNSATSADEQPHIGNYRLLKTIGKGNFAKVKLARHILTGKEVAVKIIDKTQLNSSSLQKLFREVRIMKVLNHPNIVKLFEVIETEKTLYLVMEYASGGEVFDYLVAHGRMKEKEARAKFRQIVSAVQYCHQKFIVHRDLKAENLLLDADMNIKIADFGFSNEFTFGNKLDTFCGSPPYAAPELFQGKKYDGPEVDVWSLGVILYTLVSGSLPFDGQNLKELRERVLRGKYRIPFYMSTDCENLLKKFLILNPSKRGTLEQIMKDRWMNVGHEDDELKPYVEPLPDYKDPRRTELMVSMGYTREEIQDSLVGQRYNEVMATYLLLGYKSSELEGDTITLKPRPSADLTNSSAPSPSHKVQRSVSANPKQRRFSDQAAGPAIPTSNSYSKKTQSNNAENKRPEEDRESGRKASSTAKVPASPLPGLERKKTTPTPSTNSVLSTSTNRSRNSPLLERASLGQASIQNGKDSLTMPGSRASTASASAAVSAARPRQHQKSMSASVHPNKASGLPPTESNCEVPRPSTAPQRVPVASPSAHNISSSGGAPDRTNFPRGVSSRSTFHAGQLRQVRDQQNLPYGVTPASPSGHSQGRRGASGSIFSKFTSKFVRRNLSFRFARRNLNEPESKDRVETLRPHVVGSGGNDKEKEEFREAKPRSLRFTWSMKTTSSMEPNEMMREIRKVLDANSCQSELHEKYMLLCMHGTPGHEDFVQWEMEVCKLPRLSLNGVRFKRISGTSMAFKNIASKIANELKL", "test": "Selectivity interaction (ActivX KiNativ screen (kinase selectivity in THP-1 cell lysates)) EUB0000639a MARK2", "assay_type": "subcellular", "details": "lysate, at 0.2 µM"}, "[4]": {"molecular_target": "Serine/threonine-protein kinase B-raf (Homo sapiens) (UniProt P15056)", "sequence (P15056 whole entry)": "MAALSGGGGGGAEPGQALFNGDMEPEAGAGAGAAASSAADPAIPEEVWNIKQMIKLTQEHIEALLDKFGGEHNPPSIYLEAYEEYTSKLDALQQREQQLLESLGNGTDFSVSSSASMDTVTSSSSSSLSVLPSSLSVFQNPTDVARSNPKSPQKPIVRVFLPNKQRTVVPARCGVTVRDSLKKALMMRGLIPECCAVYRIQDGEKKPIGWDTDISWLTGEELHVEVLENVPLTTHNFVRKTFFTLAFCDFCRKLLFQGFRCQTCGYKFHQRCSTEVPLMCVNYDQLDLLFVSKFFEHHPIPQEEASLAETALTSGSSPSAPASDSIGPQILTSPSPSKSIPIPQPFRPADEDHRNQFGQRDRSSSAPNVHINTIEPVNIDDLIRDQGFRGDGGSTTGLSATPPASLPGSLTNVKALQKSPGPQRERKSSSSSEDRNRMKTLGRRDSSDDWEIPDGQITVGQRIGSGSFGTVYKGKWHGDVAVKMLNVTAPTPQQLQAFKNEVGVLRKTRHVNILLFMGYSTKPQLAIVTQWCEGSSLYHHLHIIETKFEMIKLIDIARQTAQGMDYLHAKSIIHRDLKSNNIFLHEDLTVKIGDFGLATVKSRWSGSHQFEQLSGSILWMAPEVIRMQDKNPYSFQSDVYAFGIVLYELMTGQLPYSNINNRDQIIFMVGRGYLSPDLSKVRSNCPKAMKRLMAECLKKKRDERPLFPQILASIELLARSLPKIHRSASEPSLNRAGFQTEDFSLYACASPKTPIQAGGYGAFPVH", "test": "(§1) Selectivity interaction (KinomeScan (DiscoverX)) EUB0000045b BRAF"}, "[5]": {"system": "Serine/threonine-protein kinase B-raf (Homo sapiens), P15056 [V600E]", "sequence (P15056 whole entry V600E)": "as the sequence (P15056 whole entry) above, with V600E counted along it", "test": "as §1"}, "[6]": {"molecular_target": "T3, Homeodomain-interacting protein kinase 4 (Homo sapiens) (UniProt Q8NE63)", "T3 sequence (whole entry)": "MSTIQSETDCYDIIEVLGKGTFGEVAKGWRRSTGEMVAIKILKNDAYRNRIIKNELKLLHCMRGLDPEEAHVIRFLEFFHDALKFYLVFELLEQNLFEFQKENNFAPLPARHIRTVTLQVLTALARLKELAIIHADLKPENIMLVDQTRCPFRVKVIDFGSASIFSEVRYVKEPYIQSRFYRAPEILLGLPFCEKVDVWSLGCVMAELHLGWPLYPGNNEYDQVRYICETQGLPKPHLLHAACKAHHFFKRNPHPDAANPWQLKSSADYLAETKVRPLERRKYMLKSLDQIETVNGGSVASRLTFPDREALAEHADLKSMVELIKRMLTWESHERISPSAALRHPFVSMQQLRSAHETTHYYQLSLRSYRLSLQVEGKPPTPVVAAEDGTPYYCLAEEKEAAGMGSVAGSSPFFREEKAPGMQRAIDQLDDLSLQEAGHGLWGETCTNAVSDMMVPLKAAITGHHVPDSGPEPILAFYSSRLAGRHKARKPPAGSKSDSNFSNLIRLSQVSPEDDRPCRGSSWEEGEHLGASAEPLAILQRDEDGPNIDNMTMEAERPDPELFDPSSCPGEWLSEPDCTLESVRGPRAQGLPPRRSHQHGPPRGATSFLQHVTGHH", "test": "Selectivity interaction (KinomeScan (DiscoverX)) EUB0001619a HIPK4", "details": "at 1 µM"}, "[7]": {"molecular_target": "Ribosomal protein S6 kinase alpha-3 (Homo sapiens, UniProt P51812)", "sequence (P51812 whole entry)": "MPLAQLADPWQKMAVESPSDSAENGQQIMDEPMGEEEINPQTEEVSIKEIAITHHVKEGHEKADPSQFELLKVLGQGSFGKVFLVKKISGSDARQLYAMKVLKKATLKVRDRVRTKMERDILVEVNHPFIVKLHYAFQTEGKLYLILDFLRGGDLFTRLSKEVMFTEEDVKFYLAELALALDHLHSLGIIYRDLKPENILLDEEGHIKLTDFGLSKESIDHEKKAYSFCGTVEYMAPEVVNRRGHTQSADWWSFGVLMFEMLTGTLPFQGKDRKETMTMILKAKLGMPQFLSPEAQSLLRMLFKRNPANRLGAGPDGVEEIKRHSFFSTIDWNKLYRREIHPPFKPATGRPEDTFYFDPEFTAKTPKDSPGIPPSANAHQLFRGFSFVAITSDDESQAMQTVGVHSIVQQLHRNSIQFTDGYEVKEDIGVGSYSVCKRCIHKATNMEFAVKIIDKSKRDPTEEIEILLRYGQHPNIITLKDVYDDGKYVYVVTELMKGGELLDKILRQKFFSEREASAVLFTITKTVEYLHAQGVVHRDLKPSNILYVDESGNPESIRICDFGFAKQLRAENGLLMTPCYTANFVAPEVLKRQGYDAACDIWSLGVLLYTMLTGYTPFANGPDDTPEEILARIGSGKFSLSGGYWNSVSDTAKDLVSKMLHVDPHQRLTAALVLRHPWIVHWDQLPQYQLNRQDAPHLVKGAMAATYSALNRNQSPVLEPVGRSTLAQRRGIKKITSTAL", "test": "Selectivity interaction (ActivX KiNativ screen (ex vivo kinase selectivity in human PBMCs)) EUB0001619a RPS6KA3", "assay_type": "cell-based", "details": "PBMC, at 1 µM"}, "[8]": {"molecular_target": "T4, Serine/threonine-protein kinase Sgk1 (Homo sapiens) (UniProt O00141)", "T4 sequence (whole entry)": "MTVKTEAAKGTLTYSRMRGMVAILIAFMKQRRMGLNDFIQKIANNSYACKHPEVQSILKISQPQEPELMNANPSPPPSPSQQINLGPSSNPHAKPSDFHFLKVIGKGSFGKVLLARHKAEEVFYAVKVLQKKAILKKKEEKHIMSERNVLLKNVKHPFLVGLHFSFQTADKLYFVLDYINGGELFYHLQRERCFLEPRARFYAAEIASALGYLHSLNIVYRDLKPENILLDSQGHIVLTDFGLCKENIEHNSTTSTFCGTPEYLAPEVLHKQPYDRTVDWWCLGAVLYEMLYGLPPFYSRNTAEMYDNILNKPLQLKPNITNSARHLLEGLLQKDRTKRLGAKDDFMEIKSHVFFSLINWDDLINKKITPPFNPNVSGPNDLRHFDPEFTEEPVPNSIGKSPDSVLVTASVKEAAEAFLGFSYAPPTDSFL", "test": "Selectivity interaction (KinomeScan (DiscoverX)) EUB0001619a SGK1", "details": "at 1 µM"}}}
{"compound": "COc1cc(N(C)c2ccnc3ccc(C(F)(F)F)cc23)cc(OC)c1OC", "values": [{"measurement": "% binding", "setting": "[1]", "result": 92, "unit": "%"}]}
{"compound": "CC[C@@H]1[C@H](F)C(=O)N[C@@H]1COc1nccc2cc(C(N)=O)c(OC)cc12", "note": "[ZIMLOVISERTIB]", "values": [{"measurement": "% of inhibition", "setting": "[2]", "result": -4.2, "unit": "%"}, {"measurement": "% of inhibition", "setting": "[3]", "result": 2.7, "unit": "%"}]}
{"compound": "C=CC(=O)Nc1cc(-n2c(=O)ccc3cnc4ccc(-c5ccc(NS(C)(=O)=O)cc5)cc4c32)ccc1C", "values": [{"measurement": "% of control", "setting": "[4]; at 1 µM", "result": 100, "unit": "%"}, {"measurement": "% of control", "setting": "[4]; at 10 µM", "result": 100, "unit": "%"}, {"measurement": "% of control", "setting": "[5]; at 1 µM", "result": 100, "unit": "%"}, {"measurement": "% of control", "setting": "[5]; at 10 µM", "result": 100, "unit": "%"}]}
{"compound": "N#Cc1cccc(-c2c[nH]c3ncnc(N4CCOCC4)c23)c1", "values": [{"measurement": "% of control", "setting": "[6]", "result": 100, "unit": "%"}, {"measurement": "% of inhibition", "setting": "[7]", "result": 21, "unit": "%"}, {"measurement": "% of control", "setting": "[8]", "result": 65, "unit": "%"}]}
